Assay results as given in PubChem BioAssay (NCI).
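Where inhibition never reached the appropriate level, the endpoint shown equals the highest concentration tested. Otherwise, values were interpolated linearly from a five-concentration, 48-hour dose response in 96-well plates. Abbreviation: GI50, concentration required for 50% inhibition of growth. TGI marks complete inhibition of growth.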

Columns and labels:
Test in all cases: NCI-60 cell line screen, 48 h
786-0 renal = test system: 786-0 renal
A498 renal = test system: A498 renal
A549 NSCLC = test system: A549 NSCLC
ACHN renal = test system: ACHN renal
BT-549 breast = test system: BT-549 breast
CAKI-1 renal = test system: CAKI-1 renal
CCRF-CEM leukemia = test system: CCRF-CEM leukemia
COLO 205 colon = test system: COLO 205 colon
DU-145 prostate = test system: DU-145 prostate
EKVX NSCLC = test system: EKVX NSCLC
HCC-2998 colon = test system: HCC-2998 colon
HCT-116 colon = test system: HCT-116 colon
HCT-15 colon = test system: HCT-15 colon
HL-60(TB) leukemia = test system: HL-60(TB) leukemia
HOP-62 NSCLC = test system: HOP-62 NSCLC
HOP-92 NSCLC = test system: HOP-92 NSCLC
HS 578T breast = test system: HS 578T breast
HT29 colon = test system: HT29 colon
IGROV1 ovarian = test system: IGROV1 ovarian
K-562 leukemia = test system: K-562 leukemia
KM12 colon = test system: KM12 colon
LOX IMVI melanoma = test system: LOX IMVI melanoma
M14 melanoma = test system: M14 melanoma
MALME-3M melanoma = test system: MALME-3M melanoma
MCF7 breast = test system: MCF7 breast
MDA-MB-231 breast = test system: MDA-MB-231 breast
MDA-MB-435 = test system: MDA-MB-435
MOLT-4 leukemia = test system: MOLT-4 leukemia
NCI-H226 lung = test system: NCI-H226 lung
NCI-H23 lung = test system: NCI-H23 lung
NCI-H460 lung = test system: NCI-H460 lung
NCI-H522 lung = test system: NCI-H522 lung
NCI/ADR-RES ovarian = test system: NCI/ADR-RES ovarian
OVCAR-4 ovarian = test system: OVCAR-4 ovarian
OVCAR-5 ovarian = test system: OVCAR-5 ovarian
OVCAR-8 ovarian = test system: OVCAR-8 ovarian
PC-3 prostate = test system: PC-3 prostate
RPMI-8226 leukemia = test system: RPMI-8226 leukemia
RXF 393 renal = test system: RXF 393 renal
SF-268 CNS = test system: SF-268 CNS
SF-295 CNS = test system: SF-295 CNS
SF-539 CNS = test system: SF-539 CNS
SK-MEL-2 melanoma = test system: SK-MEL-2 melanoma
SK-MEL-28 melanoma = test system: SK-MEL-28 melanoma
SK-MEL-5 melanoma = test system: SK-MEL-5 melanoma
SK-OV-3 ovarian = test system: SK-OV-3 ovarian
SN12C renal = test system: SN12C renal
SNB-19 CNS = test system: SNB-19 CNS
SNB-75 CNS = test system: SNB-75 CNS
SR leukemia = test system: SR leukemia
SW-620 colon = test system: SW-620 colon
T-47D breast = test system: T-47D breast
TK-10 renal = test system: TK-10 renal
U251 CNS = test system: U251 CNS
UACC-257 melanoma = test system: UACC-257 melanoma
UACC-62 melanoma = test system: UACC-62 melanoma
UO-31 renal = test system: UO-31 renal

## CS(=O)(=O)Nc1cc(-c2ccc3ncc(C#N)c(NCc4ccccc4F)c3c2)cnc1Cl
786-0 renal
  GI50: 308 nM
  TGI: 9520 nM
A498 renal
  GI50: 89.6 nM
  TGI: 461 nM
A549 NSCLC
  GI50: 442 nM
  TGI: 4000 nM
ACHN renal
  GI50: 436 nM
  TGI: > 52500 nM
BT-549 breast
  GI50: 60.9 nM
  TGI: 623 nM
CAKI-1 renal
  GI50: 131 nM
  TGI: 1420 nM
CCRF-CEM leukemia
  GI50: 153 nM
  TGI: 45800 nM
COLO 205 colon
  GI50: 271 nM
  TGI: 1200 nM
DU-145 prostate
  GI50: 302 nM
  TGI: 12100 nM
EKVX NSCLC
  GI50: 319 nM
  TGI: 5480 nM
HCC-2998 colon
  GI50: 339 nM
  TGI: 8320 nM
HCT-116 colon
  GI50: 248 nM
  TGI: 1500 nM
HCT-15 colon
  GI50: 264 nM
  TGI: 11700 nM
HL-60(TB) leukemia
  GI50: 253 nM
  TGI: 6390 nM
HOP-62 NSCLC
  GI50: 220 nM
  TGI: 4710 nM
HOP-92 NSCLC
  GI50: 23.8 nM
  TGI: 286 nM
HS 578T breast
  GI50: 49.8 nM
  TGI: 445 nM
HT29 colon
  GI50: 324 nM
  TGI: 5490 nM
IGROV1 ovarian
  GI50: 108 nM
  TGI: 876 nM
K-562 leukemia
  GI50: 260 nM
  TGI: > 100000 nM
KM12 colon
  GI50: 280 nM
  TGI: 3860 nM
LOX IMVI melanoma
  GI50: 191 nM
  TGI: 1010 nM
M14 melanoma
  GI50: 243 nM
  TGI: 7010 nM
MALME-3M melanoma
  GI50: 71.7 nM
  TGI: 475 nM
MCF7 breast
  GI50: 106 nM
  TGI: 11500 nM
MDA-MB-231 breast
  GI50: 343 nM
  TGI: 3800 nM
MDA-MB-435
  GI50: 251 nM
  TGI: 10600 nM
MOLT-4 leukemia
  GI50: 190 nM
  TGI: 2540 nM
NCI-H226 lung
  GI50: 358 nM
  TGI: 18200 nM
NCI-H23 lung
  GI50: 271 nM
  TGI: 12300 nM
NCI-H460 lung
  GI50: 374 nM
  TGI: 11500 nM
NCI-H522 lung
  GI50: 335 nM
  TGI: 8140 nM
NCI/ADR-RES ovarian
  GI50: 1450 nM
  TGI: 29500 nM
OVCAR-4 ovarian
  GI50: 262 nM
  TGI: 6050 nM
OVCAR-5 ovarian
  GI50: 386 nM
  TGI: 9740 nM
OVCAR-8 ovarian
  GI50: 328 nM
  TGI: 12200 nM
PC-3 prostate
  GI50: 231 nM
  TGI: 10000 nM
RPMI-8226 leukemia
  GI50: 189 nM
  TGI: 1290 nM
RXF 393 renal
  GI50: 93.4 nM
  TGI: 925 nM
SF-268 CNS
  GI50: 163 nM
  TGI: 3670 nM
SF-295 CNS
  GI50: 197 nM
  TGI: 1920 nM
SF-539 CNS
  GI50: 190 nM
  TGI: 1840 nM
SK-MEL-2 melanoma
  GI50: 91.9 nM
  TGI: 320 nM
SK-MEL-28 melanoma
  GI50: 176 nM
  TGI: 4770 nM
SK-MEL-5 melanoma
  GI50: 163 nM
  TGI: 336 nM
SK-OV-3 ovarian
  GI50: 232 nM
  TGI: 1400 nM
SN12C renal
  GI50: 235 nM
  TGI: > 64000 nM
SNB-19 CNS
  GI50: 293 nM
  TGI: 11500 nM
SNB-75 CNS
  GI50: 26.7 nM
  TGI: 370 nM
SR leukemia
  GI50: 123 nM
  TGI: 3200 nM
SW-620 colon
  GI50: 317 nM
  TGI: 10800 nM
T-47D breast
  GI50: 108 nM
  TGI: 5840 nM
TK-10 renal
  GI50: 100 nM
  TGI: 976 nM
U251 CNS
  GI50: 155 nM
  TGI: 4270 nM
UACC-257 melanoma
  GI50: 244 nM
  TGI: 4940 nM
UACC-62 melanoma
  GI50: 118 nM
  TGI: 1270 nM
UO-31 renal
  GI50: 154 nM
